Reference: patent US20230103675A1, “ALLERGEN PROTECTION FOR THE SKIN” (BEIERSDORF AG, priority 2020, published 2023)
Where no end group is shown, it is not given here.

Experiments:
[1] = system: Phenion skin models; assay: H&E staining of cryosections of Phenion skin models; assay type: cell-based; conditions: FIG. 5 B; 0.5 mM peptide, no allergen
Protocol: (§1) The investigations were carried out using Phenion FTS full skin models (Phenion, Henkel). These were maintained for 3 days at 37° C. and 7% CO2 in deep-well plates having a […] pore size in the cell culture inserts. The skin models were maintained in 1.5 ml of air-liquid interface medium without phenol red. The medium was changed daily. The test substances were dissolved in ethanol and incubated at room temperature for 24 h. After culturing for 24 h, 25 μl of the substance solution was dripped onto a sterile filter paper that had previously been laid on the skin model. The barrier peptide (0.5 mM AcRFAACAA) had previously been applied to the model as a solution in 100 mM phosphate buffer (pH 7.5). Alternatively, the barrier peptide was applied in a formulation having a content of 0.25% by weight.
(§2) After culturing for a further 24 h, the models were harvested and one half embedded in OCT mounting medium (VWR Q-Path Chemicals), the other half snap-frozen in liquid nitrogen. The supernatant of each model was collected and stored at −20° C.
In further investigations, frozen sections were thawed and incubated for 10 min in 3.7% paraformaldehyde at RT. After three PBS wash steps and one minute in distilled water, they are stained for 3 min in hematoxylin solution. […]

[2] = system: Phenion FTS full skin models; assay: Cytokine release (IL8, IL6) in supernatants of Phenion FTS full skin models, Bio-Plex multiplex immunoassay; assay type: cell-based, human; conditions: FIGS. 2 to 4 left bar; 0.5 mM peptide without allergen
Protocol: as §1, §2
The supernatants were then analyzed (FIGS. 2, 3 and 4).
The supernatants of the Phenion FTS models were analyzed using the Bio-Plex Pro Human Cytokine Screening Panel (Bio-Rad) according to the manufacturer's protocol. […] The cytokine concentrations are calculated on the basis of the standard curves from the Bioplex system. […]

[3] = Barrier effect against metals
[4] = Direct peptide reaction assay (DPRA) with urushiols, Ellman's reagent, 24 h; conditions: FIG. 9; urushiol structures I-V, 24 h reaction, n=3
Protocol: The reaction courses shown in FIGS. 8 and 9 were determined colorimetrically through the reaction of the peptide with Ellmann's reagent in a photometer. In this reaction, DTNB ((5,5′-dithiobis-2-nitrobenzoic acid, Ellmann's reagent) is cleaved and attached to the SH residue of the amino acid cysteine of the peptides of the invention (Ac-RFAACAA, RFAACAA).
The SH radical is at the same time the reactive binding site of the peptide with the allergens. The color reaction with DTNB (color change from colorless to yellow) competes with the allergen reaction. This means that the better the allergen reacts with the peptide, the less peptide remains available for the reaction with the detection reagent, i.e. the less the resulting yellow coloration.
The control is the peptide in the buffer system without allergen, i.e. instead of allergen only its solvent (ethanol) is added.
Urushiols of the structure below were used.
The investigated urushiols differ in the saturation in the side chain R.
Urushiols where R═C15 singly (C15:1), doubly (C15:2) or triply (C15:3) unsaturated were investigated.

Ac-RFAACAA [Ac-RFAACAA, acetylarginine-phenylalanine-alanine-alanine-cysteine-alanine-alanine]
skin model morphology (H&E) with peptide on its own [1]: unchanged
skin model IL8/IL6 release with peptide on its own [2]: unchanged

His His His His His His (HHHHHH; printed: His His His His His His)
barrier effect against metals and nickel in particular [3]: achieved a barrier effect

RFAACAA [Arg Phe Ala Ala Cys Ala Ala]
reactivity and thus protective activity against urushiols [4]: very high reactivity
